In patent US8900851B2, “Multi-well platform” (The Research Foundation for the State University of New York, priority 2008, dated 2014):

What was measured:
C43 [1] = experiment: shRNA effect on endogenous C43 expression, real time RT PCR in MDA-MB-435 cells; type: cell-based, human; settings: retroviral shRNA delivery
Protocol: A) Overexpresison of C43 enhanced cell migration. COS-1 cells and MCF-7 cells transfected with vector control (1 & 4), C43 (2 & 5) or MT1-MMP (3 & 6, positive control) cDNAs were evaluated by a Transwell Chamber migration assay after 6 hours. The cells were fixed and migratory cells were counted under microscopy with 20× objective. Ten fields were examined for each transfected cells. Each bar represents the mean±SE. B) Enhanced cell migration in MCF-7 cells expressing C43-GFP chimera. Minimally invasive human breast cancer MCF-7 cells stably transfected with GFP control and C43-GFP chimeric cDNA were mixed with type I collagen and dotted onto a 96-well plate. […] Cell migration was determined under microscopy. […]
Small interfering oligonucleotides specific for either C43 or luciferase (control) to express short hairpin RNA (shRNA) were designed using an online software system (Block-iT RNAi Designer; Invitrogen) for mammalian RNA interference. Specific 21-nucleotide sequences spanning nucleotides […] of the human C43 gene (see FIG. 2: SEQ ID NO: 1) and nucleotides 103-123 of luciferase from firefly Pyrocoelia pectoralis as a control were synthesized by Operon Biotechnologies, Inc. Annealed double stranded oligonucleotides were cloned into the RNAi-Ready pSIREN-Retra Q vector (Clontech). […]

MDA-MB-435 cells [2] = experiment: 3D invasion assay, MDA-MB-435 cells expressing shRNA; type: cell-based, human; settings: 3D invasion assay after 8 days, vs Luciferase shRNA control
Excerpt: (§1) Left panel: Loss of invasive ability of MDA-MB-435 cells by downregulation of C43. MDA-MB-435 cells expressing Luciferase shRNA control, C43 shRNA-2 and -3 were examined by the 3D invasion assay after 8 days. […] MDA-MB-435 cells expressing Luciferase shRNA shRNA, C43 shRNA-2 and -3 cultured on plastic dishes were observed under inverted microscopy with differential interference contrast (DIC).
The following methodology permits the detection of cancer cell invasion into a collagen matrix and the inhibitory activity of anti-cancer drugs. This assay is useful in identifying pharmacologic agents (drugs) that interfere with cancer progression. […] Invading cancer cells leaving the perimeter of the original collagen droplet are readily visualized extending into the surrounding collagen matrix after 18 h incubation. Both qualitative and quantitative analyses are performed microscopically. The invasive ability of cancer cells (cells outside the original droplet), as well as the effect of pharmacologic agents on the cancer cell invasion, can be determined microscopically. The effect of pharmacologic agents on invasion of cancer cells is determined by counting invading cells in the presence versus the absence of pharmacologic agents. […] This assay will be readily adaptable for high throughput screening of libraries of compounds that may be useful for cancer treatment. […]

MDA-MB-435 cells [3] = experiment: cell proliferation of MDA-MB-435 cells expressing shRNA; type: cell-based, human; settings: MDA-MB-435 cells in culture
Excerpt: as §1
(§2) As summarized in FIG. 1, 2×10^6 MDA-MB-435 cancer cells expressing either C43 shRNA or luciferase shRNA control were orthotopically injected into mammary tissue of nu/nu immunodeficient mice. Tumor growth was measured with calipers twice a week. Tumor size was determined using the formula: (tumor size=tumor diameter(×)square root of tumor diameter(÷)2). […] In contrast to in vivo tumor growth, downregulation of C43 had no effect on cancer MDA-MB-435 cell proliferation in tissue culture (not shown), emphasizing the unique role of C43 on protease-independent aspects of cell invasion and tumor progression.

MDA-MB-435 cells [4] = experiment: cell morphology of MDA-MB-435 cells expressing shRNA (DIC microscopy); type: cell-based, human; settings: MDA-MB-435 cells cultured on plastic dishes
Excerpt: as §1

C43 [5] = experiment: C43 expression by real time RT PCR in MCF-7 cells; type: cell-based, human; settings: MCF-7 cells treated vs untreated, FIG. 17A
Protocol: (§3) MCF-7 cells were left untreated or treated with an inhibitor of DNA methyltransferase, […] (5-aza-dC). Expression of C43 was monitored by a real time RT PCR approach and cell migration ability was determined by a transwell chamber migration assay.

MCF-7 cells = experiment: transwell chamber migration assay, MCF-7 cells; type: cell-based, human; settings: FIG. 17B
Protocol: as §3

C43 [6] = experiment: C43 expression by real time RT PCR in MDA-MB-231 cells; type: cell-based, human
MDA-MB-231 cells = experiment: transwell chamber migration assay, MDA-MB-231 cells; type: cell-based, human
C43 [7] = experiment: Northern blot analysis of C43 in HT1080 cells; type: cell-based, human; settings: FIG. 11A
Excerpt: Total RNAs of MCF-7 cells, HT1080 or HT1080 cells treated with Con A were probed with p^32-labeled C43 probe. A single 9.5 kb mRNA transcript corresponding to C43 was detected (arrowhead). Con A enhances C43 expression in HT1080 cells. B) Expression of C43 in transfected COS-1 cells: COS-1 cells transfected with vector or C43-Myc chimera were examined by Western blotting using anti-Myc antibody. C43 was detected as a 150 kDa protein band along with degradation products.

MDA-MB-435 cancer cells = experiment: orthotopic implantation of MDA-MB-435 cells expressing shRNA into immunodeficient mice; type: in vivo, nu/nu immunodeficient mice
Excerpt: FIG. 1 depicts tumor growth and survival curves comparing the effect of C43 shRNA (SEQ ID NO: 2) (FIG. 1A) and control luciferase shRNA (FIG. 1B) on tumor appearance, progression, and survival following orthotopic implantation of MDA-MB-435 breast cancer cells into immunodeficient mice.
as §2

[8] = tested on: human breast cancer MDA-MB-231 cells; experiment: 3D invasion assay with well-established inhibitory compounds; type: cell-based; settings: data not shown
Excerpt: To increase the throughput as well as to standardize and automate the readout using imaging software, we have designed and tooled a 96-well plate with a 2.1 mm3 pit in the center of each well. This tooled plate restricts the cell/matrix mixture to an identical pit (size and location) within each well, thus permitting automated microscopic imaging of cell invasion (FIG. 19). To test if imaging acquisition and data analysis can be automated, we have employed a motorized stage (Prior Scientific, Inc.) installed on the existing Nikon TE2000s inverted microscope. The automated microscopy system is controlled by the NIS-Elements imaging software (Nikon) for imaging acquisition and data analysis. Using a 10× objective, we have shown that it takes 6 minutes to scan the entire 96 well plate. To quantitatively analyze cells that invade into the matrix, using both phase contrast and nuclear-stained images is optimal.
To establish the efficacy of the assay for screening libraries, we have tested the effect of well-established inhibitory compounds on cell invasion. […] Moreover, this 3D invasion assay is simple, precise, easy to replicate, and has multiple applications.

[9] = tested on: HT1080 and/or human breast cancer MDA-MB-231 cell; experiment: 3D invasion assay, positive controls; type: cell-based; settings: positive controls in culture medium, HT1080 and/or MDA-MB-231 cells
Protocol: HT1080 cells and/or human breast cancer MDA-MB-231 cells (4×10^7/ml) mixed with type I collagen (1.5 mg/ml at final) are dispensed into the cell-holding wells in invasion assay plates (2 ul/well, optimum volume) using the liquid handling system at 4° C. working temperature to prevent the collagen from solidifying within the liquid handling system. After dotting, the plate is inserted in an incubator chamber at 37° C. for 15 min followed by the addition of type I collagen to cover the gelled cell aggregates. […] Images are acquired from transmission (phase contrast) and fluorescence (DAPI) sources by an external light shutter device that gathers two images per time point in time-lapse sequences. […] Data analysis will be performed using NIS-Element imaging software (Nikon) based on pre-determined criteria.
The following steps will be performed to screen the compound library targeting cancer cell migration/invasion using the automated 3D invasion HTS system: 1) Cell plating: HT1080 cells and/or human breast cancer MDA-MB-231 cells are used for selecting inhibitory compounds because these cells display invasive ability and represent mesenchymal cancer cells. […] Images acquired by an automated Nikon inverted microscope (TE2000s) equipped with a motorized stage (Prior Scientific) are then analyzed using the NIS-Elements software (Nikon). […]

Compound | endogenous C43 expression (C43 [1]) | cell invasive ability (MDA-MB-435 cells [2]) | cell proliferation (MDA-MB-435 cells [3]) | cell morphology (MDA-MB-435 cells [4]) | other results
C43 shRNA-2: C43 shRNA sequence GTGGAAGACCATATTGAATAT, nt 1104 | significantly decrease | loss of cell invasive ability | does not alter | Change of cell morphology | 
Nc1ncn([C@H]2C[C@H](O)[C@@H](CO)O2)c(=O)n1 [5-aza-dC, a-aza-deoxycytined] |  |  |  |  | endogenous C43 expression (C43 [5]): increased; cell migration (MCF-7 cells): enhanced; C43 expression (C43 [6]): No effect; cell migration (MDA-MB-231 cells): No effect
Concanavalin A [Con A] |  |  |  |  | C43 expression (C43 [7]): enhances
C43 shRNA-3: C43 shRNA sequence GCCTCTCCATCCATCATACATT, nt 1997 | significantly decrease | loss of cell invasive ability | does not alter | Change of cell morphology | 
C43 shRNA: 21-nucleotide C43 shRNA CCTCTCCATCCATCATACATT spanning nucleotides 1735-1757 of SEQ ID NO: 1 (chemistry not given here; listed as Homo sapiens) |  |  | no effect |  | tumor appearance and progression (MDA-MB-435 cancer cells; 2×10^6 MDA-MB-435 cells orthotopically injected into mammary tissue, vs luciferase shRNA control, FIG. 1A): delayed; survival (MDA-MB-435 cancer cells; orthotopic MDA-MB-435, vs luciferase shRNA control mice, FIG. 1B): prolonged
COc1cccc(-c2cc(=O)c3ccccc3o2)c1N [PD98059] |  |  |  |  | inhibition of cell invasion [8]: dose-dependent inhibition; cell invasion [9]: block
